# Data from ChEMBL document CHEMBL3885861, “Open TG-GATES”.
# Species on record: Rattus norvegicus
# Test: Open TG-GATES - Regimen: Single
# Type: toxicity, organism-based, Sprague-Dawley
# Parameters: regimen Single, gender Male, age 6 weeks
# Conditions: in vivo, po, 0 mg/kg, route gavage, dose level Control; for APTT / Bas / Eos / Fbg / Hb / Ht / Lym / MCH / MCHC / MCV / Mono / Neu / PT / Plat / RBC / Ret / WBC: tissue Blood; for KIDNEY_L / KIDNEY_R / KIDNEY_TOTAL: tissue Kidney; for LIVER: tissue Liver; for A/G / ALP / ALT / AST / BUN / CRE / Ca / Cl / DBIL / GLC / IP / K / LDH / Na / PL / RALB / TBIL / TC / TG / TP / gamma-GTP: tissue Plasma
structure (smiles),measurement,setting,value
CC(C)C(=O)Nc1ccc([N+](=O)[O-])c(C(F)(F)F)c1 [FLUTAMIDE],TERMINAL_BW,3 h,211.8 g
same,APTT,3 h,18.5 s
same,Bas,3 h,0%
same,Eos,3 h,1%
same,Fbg,3 h,211.2 mg/dL
same,Hb,3 h,13.4 g/dL
same,Ht,3 h,39%
same,Lym,3 h,77%
same,MCH,3 h,22.2 pg
same,MCHC,3 h,34.4%
same,MCV,3 h,64.5 fL
same,Mono,3 h,3.6%
same,Neu,3 h,17.4%
same,PT,3 h,12.7 s
same,Plat,3 h,126.5 x10_4/uL
same,RBC,3 h,604.2 x10_4/ul
same,Ret,3 h,8.3%
same,WBC,3 h,99.3 x10_2/uL
same,KIDNEY_L,3 h,1 g
same,KIDNEY_R,3 h,1 g
same,KIDNEY_TOTAL,3 h,1.9 g
same,LIVER,3 h,10 g
same,A/G,3 h,1.7
same,ALP,3 h,1054 IU/L
same,ALT,3 h,39.4 IU/L
same,AST,3 h,69.6 IU/L
same,BUN,3 h,10.8 mg/dL
same,CRE,3 h,0.3 mg/dL
same,Ca,3 h,11 mg/dL
same,Cl,3 h,103.2 meq/L
same,DBIL,3 h,0.3 mg/dL
same,GLC,3 h,193.4 mg/dL
same,IP,3 h,9.1 mg/dL
same,K,3 h,3.9 meq/L
same,LDH,3 h,165.4 IU/L
same,Na,3 h,140 meq/L
same,PL,3 h,176 mg/dL
same,RALB,3 h,3.5 g/dL
same,TBIL,3 h,0.4 mg/dL
same,TC,3 h,83.2 mg/dL
same,TG,3 h,186 mg/dL
same,TP,3 h,5.5 g/dL
same,gamma-GTP,3 h,1.4 IU/L
same,TERMINAL_BW,6 h,207.5 g
same,APTT,6 h,18.8 s
same,Bas,6 h,0%
same,Eos,6 h,0.6%
same,Fbg,6 h,228 mg/dL
same,Hb,6 h,13.7 g/dL
same,Ht,6 h,39.6%
same,Lym,6 h,80%
same,MCH,6 h,21.9 pg
same,MCHC,6 h,34.5%
same,MCV,6 h,63.3 fL
same,Mono,6 h,3.2%
same,Neu,6 h,15%
same,PT,6 h,12.5 s
same,Plat,6 h,115.8 x10_4/uL
same,RBC,6 h,625.8 x10_4/ul
same,Ret,6 h,7.2%
same,WBC,6 h,108.6 x10_2/uL
same,KIDNEY_L,6 h,0.9 g
same,KIDNEY_R,6 h,0.9 g
same,KIDNEY_TOTAL,6 h,1.9 g
same,LIVER,6 h,9 g
same,A/G,6 h,1.8
same,ALP,6 h,1030.8 IU/L
same,ALT,6 h,37.6 IU/L
same,AST,6 h,65.8 IU/L
same,BUN,6 h,8.4 mg/dL
same,CRE,6 h,0.3 mg/dL
same,Ca,6 h,10.7 mg/dL
same,Cl,6 h,102.6 meq/L
same,DBIL,6 h,0.1 mg/dL
same,GLC,6 h,193.6 mg/dL
same,IP,6 h,9.5 mg/dL
same,K,6 h,4.2 meq/L
same,LDH,6 h,140.8 IU/L
same,Na,6 h,139.8 meq/L
same,PL,6 h,157 mg/dL
same,RALB,6 h,3.5 g/dL
same,TBIL,6 h,0.2 mg/dL
same,TC,6 h,89 mg/dL
same,TG,6 h,51.8 mg/dL
same,TP,6 h,5.6 g/dL
same,gamma-GTP,6 h,1 IU/L
same,TERMINAL_BW,9 h,204.9 g
same,APTT,9 h,18.4 s
same,Bas,9 h,0%
same,Eos,9 h,1%
same,Fbg,9 h,209.2 mg/dL
same,Hb,9 h,13.4 g/dL
same,Ht,9 h,39.4%
same,Lym,9 h,76.8%
same,MCH,9 h,21.6 pg
same,MCHC,9 h,34.2%
same,MCV,9 h,63.3 fL
same,Mono,9 h,2.8%
same,Neu,9 h,18.6%
same,PT,9 h,13.2 s
same,Plat,9 h,128.5 x10_4/uL
same,RBC,9 h,621.8 x10_4/ul
same,Ret,9 h,7.7%
same,WBC,9 h,92.7 x10_2/uL
same,KIDNEY_L,9 h,1 g
same,KIDNEY_R,9 h,1 g
same,KIDNEY_TOTAL,9 h,1.9 g
same,LIVER,9 h,8.3 g
same,A/G,9 h,1.6
same,ALP,9 h,866.2 IU/L
same,ALT,9 h,32.6 IU/L
same,AST,9 h,63.4 IU/L
same,BUN,9 h,10.4 mg/dL
same,CRE,9 h,0.3 mg/dL
same,Ca,9 h,10.1 mg/dL
same,Cl,9 h,103.4 meq/L
same,DBIL,9 h,0.072 mg/dL
same,GLC,9 h,204.6 mg/dL
same,IP,9 h,10.8 mg/dL
same,K,9 h,3.7 meq/L
same,LDH,9 h,146.2 IU/L
same,Na,9 h,141.4 meq/L
same,PL,9 h,126.8 mg/dL
same,RALB,9 h,3.3 g/dL
same,TBIL,9 h,0.1 mg/dL
same,TC,9 h,68.6 mg/dL
same,TG,9 h,43 mg/dL
same,TP,9 h,5.3 g/dL
same,gamma-GTP,9 h,0.8 IU/L
same,TERMINAL_BW,24 h,219.3 g
same,APTT,24 h,17.7 s
same,Bas,24 h,0%
same,Eos,24 h,1%
same,Fbg,24 h,206.4 mg/dL
same,Hb,24 h,13.4 g/dL
same,Ht,24 h,40.4%
same,Lym,24 h,82.2%
same,MCH,24 h,21.8 pg
same,MCHC,24 h,33.3%
same,MCV,24 h,65.7 fL
same,Mono,24 h,3.2%
same,Neu,24 h,13.4%
same,PT,24 h,12.6 s
same,Plat,24 h,126.3 x10_4/uL
same,RBC,24 h,615.6 x10_4/ul
same,Ret,24 h,7.7%
same,WBC,24 h,97.9 x10_2/uL
same,KIDNEY_L,24 h,0.9 g
same,KIDNEY_R,24 h,1 g
same,KIDNEY_TOTAL,24 h,1.9 g
same,LIVER,24 h,10.2 g
same,A/G,24 h,1.7
same,ALP,24 h,878.8 IU/L
same,ALT,24 h,39.8 IU/L
same,AST,24 h,68 IU/L
same,BUN,24 h,14.2 mg/dL
same,CRE,24 h,0.4 mg/dL
same,Ca,24 h,10.3 mg/dL
same,Cl,24 h,103.2 meq/L
same,DBIL,24 h,0.084 mg/dL
same,GLC,24 h,212 mg/dL
same,IP,24 h,7.1 mg/dL
same,K,24 h,3.7 meq/L
same,LDH,24 h,136.2 IU/L
same,Na,24 h,140.6 meq/L
same,PL,24 h,135.2 mg/dL
same,RALB,24 h,3.3 g/dL
same,TBIL,24 h,0.1 mg/dL
same,TC,24 h,77.4 mg/dL
same,TG,24 h,62.6 mg/dL
same,TP,24 h,5.4 g/dL
same,gamma-GTP,24 h,0.8 IU/L
